# According to US9802944B2, “Bicyclic compounds as autotaxin (ATX) and lysophosphatidic acid (LPA) production inhibitors” (Hoffmann-La Roche Inc., priority 2014, dated 2017):
# Target: ATX (human His-tagged) (Homo sapiens (Human), UniProt Q13822)
# Assay: Human ATX enzyme inhibition assay (fluorescence quenching, MR121 substrate)
# Type: biochemical
# Conditions: 30 nM ATX, 1 μM MR121 substrate, 30° C., pH 8.0
# Description: Production of Human Full Length ATX, with and without his Tag
# Autotaxin (ATX-ENPP2) Cloning:
# cDNA was prepared from commercial human hematopoietic cells total RNA and used as template in overlapping PCR to generate a full length human ENPP2 ORF with or without a 3′-6×His tag. These full length inserts were cloned into the pcDNA3.1V5-His TOPO (Invitrogen) vector. The DNA sequences of several single clones were verified. The DNA from a correct full length clone was used to transfect Hek293 cells for verification of protein expression. […] ATX Fermentation: Recombinant protein was produced by large-scale transient transfection in 20 L controlled stirred tank bioreactors (Sartorius). During cell growth and transfection, temperature, stirrer speed, pH and dissolved oxygen concentration were maintained at 37° C., 120 rpm, 7.1 and 30% DO, respectively. […] Expression was analyzed by Western Blot, enzymatic assay and/or analytical IMAC chromatography. After cooling the cell suspension to 4° C. in a flow-through heat exchanger, cell separation and sterile filtration of supernatant was performed by filtration through Zeta Plus 60M02 E16 (Cuno) and Sartopore 2 XLG (Sartorius) filter units. The supernatant was stored at 4° C. prior to purification. ATX Purification: 20 liter of culture supernatant were conditioned for ultrafiltration by adding Brij 35 to a final concentration of 0.02% and by adjusting the pH to 7.0 using 1 M HCl. Then the supernatant was first microfiltered through a 0.2 μm Ultran-Pilot Open Channel PES filter (Whatman) and afterwards concentrated to 1 liter through an Ultran-Pilot Screen Channel PES filter with 30 kDa MWCO (Whatman). Prior to IMAC chromatography, NiSO4 was added to a final concentration of 1 mM. The cleared supernatant was then applied to a HisTrap column (GE Healthcare) previously equilibrated in 50 mM Na2HPO4 pH 7.0, 0.5 M NaCl, 10% glycerol, 0.3% CHAPS, 0.02% NaN3. The column was washed stepwise with the same buffer containing 20 mM, 40 mM and 50 mM imidazole, respectively. The protein was subsequently eluted using a linear gradient to 0.5 M imidazole in 15 column volumes. ATX containing fractions were pooled and concentrated using an Amicon cell equipped with a 30 kDa PES filter membrane. The protein was further purified by size exclusion chromatography on Superdex S-200 prep grade (XK 26/100) (GE Healthcare) in 20 mM BICINE pH 8.5, 0.15 M NaCl, 10% glycerol, 0.3% CHAPS, 0.02% NaN3. […] The protein was stored at −80° C. […] 10 μL of MR121 substrate solution was added (1 μM final concentration), mixed 30 times and then incubated for 15 minutes at 30° C.
row,IC50 [nM],Structure (SMILES)
1,22,"NS(=O)(=O)c1ccc(C(=O)N2C[C@H]3CN(C(=O)c4cnc(OC5CCOCC5)c(C5CC5)c4)C[C@@H]3C2)cc1 [Example 1.02, 4-((3aS,6aS)-5-(5-cyclopropyl-6-(tetrahydro-2H-pyran-4-yloxy)nicotinoyl)octahydropyrrolo[3,4-c]pyrrole-2-carbonyl)benzenesulfonamide]"
2,8,"NS(=O)(=O)c1ccc(C(=O)N2C[C@H]3CN(C(=O)c4cc(OCC5CCOCC5)nc(C5CC5)c4)C[C@@H]3C2)cc1F [Example 1.04, 4-((3aR,6aR)-5-(2-cyclopropyl-6-((tetrahydro-2H-pyran-4-yl)methoxy)isonicotinoyl)octahydropyrrolo[3,4-c]pyrrole-2-carbonyl)-2-fluorobenzenesulfonamide]"
3,6,"NS(=O)(=O)c1ccc(C(=O)N2C[C@H]3CN(C(=O)c4cc(OCC5CCOCC5)nc(C5CC5)c4)C[C@@H]3C2)cc1Cl [Example 1.05, 2-chloro-4-((3aR,6aR)-5-(2-cyclopropyl-6-((tetrahydro-2H-pyran-4-yl)methoxy)isonicotinoyl)octahydropyrrolo[3,4-c]pyrrole-2-carbonyl)benzenesulfonamide]"
4,6,"O=C(c1cc(OCC2CCOCC2)cc(C2CC2)c1)N1C[C@@H]2CN(C(=O)[C@@H]3CCc4[nH]nnc4C3)C[C@H]2C1 [Example 1.16, ((3aS,6aS)-5-(3-cyclopropyl-5-((tetrahydro-2H-pyran-4-yl)methoxy)benzoyl)hexahydropyrrolo[3,4-c]pyrrol-2(1H)-yl)((R)-4,5,6,7-tetrahydro-1H-benzo[d][1,2,3]triazol-5-yl)methanone]"
5,14,"O=C(CCc1c[nH]c(=O)s1)N1C[C@H]2CCN(C(=O)c3cc(OCC4CCOCC4)nc(C4CC4)c3)CC[C@H]2C1 [Example 1.22, 5-(3-((3aR,8aS)-6-(2-cyclopropyl-6-((tetrahydro-2H-pyran-4-yl)methoxy)isonicotinoyl)octahydropyrrolo[3,4-d]azepin-2(1H)-yl)-3-oxopropyl)thiazol-2(3H)-one]"
6,3,"O=C(c1cc(OCC2CCOCC2)nc(C2CC2)c1)N1C[C@@H]2CN(C(=O)c3ccc4[nH]nnc4c3)C[C@H]2C1 [Example 2.01, ((3aS,6aS)-5-(1H-benzo[d][1,2,3]triazole-5-carbonyl)hexahydropyrrolo[3,4-c]pyrrol-2(1H)-yl)(2-cyclopropyl-6-((tetrahydro-2H-pyran-4-yl)methoxy)pyridin-4-yl)methanone]"
7,17,"O=C(c1ccc(OC2CCOC2)c(C2CC2)c1)N1C[C@@H]2CN(C(=O)[C@@H]3CCc4[nH]nnc4C3)C[C@H]2C1 (stereo partly drawn) [Example 2.02, ((3aS,6aS)-5-(3-cyclopropyl-4-(tetrahydrofuran-3-yloxy)benzoyl)hexahydropyrrolo[3,4-c]pyrrol-2(1H)-yl)((R)-4,5,6,7-tetrahydro-1H-benzo[d][1,2,3]triazol-5-yl)methanone]"
8,10,"O=C(c1ccc(OC2CCOC2)c(C2CC2)c1)N1C[C@@H]2CN(C(=O)c3ccc4[nH]nnc4c3)C[C@H]2C1 (stereo partly drawn) [Example 2.03, ((3aR,6aR)-5-(1H-benzo[d][1,2,3]triazole-5-carbonyl)hexahydropyrrolo[3,4-c]pyrrol-2(1H)-yl)(3-cyclopropyl-4-(tetrahydrofuran-3-yloxy)phenyl)methanone]"
9,40,"O=C(c1cnc(NC2CCOCC2)c(C2CC2)c1)N1C[C@@H]2CN(C(=O)c3ccc4[nH]nnc4c3)C[C@H]2C1 [Example 2.04, ((3aS,6aS)-5-(1H-benzo[d][1,2,3]triazole-5-carbonyl)hexahydropyrrolo[3,4-c]pyrrol-2(1H)-yl)(5-cyclopropyl-6-(tetrahydro-2H-pyran-4-ylamino)pyridin-3-yl)methanone]"
10,10.5,"O=C(c1cnc(OC2CCOC2)c(C2CC2)c1)N1C[C@@H]2CN(C(=O)c3ccc4[nH]nnc4c3)C[C@H]2C1 (stereo partly drawn) [Example 2.05, ((3aS,6aS)-5-(1H-benzo[d][1,2,3]triazole-5-carbonyl)hexahydropyrrolo[3,4-c]pyrrol-2(1H)-yl)(5-cyclopropyl-6-(tetrahydrofuran-3-yloxy)pyridin-3-yl)methanone]"
11,4.5,"O=C(c1cnc(OC2CCCOC2)c(C2CC2)c1)N1C[C@@H]2CN(C(=O)c3ccc4[nH]nnc4c3)C[C@H]2C1 (stereo partly drawn) [Example 2.06, ((3aS,6aS)-5-(1H-benzo[d][1,2,3]triazole-5-carbonyl)hexahydropyrrolo[3,4-c]pyrrol-2(1H)-yl)(5-cyclopropyl-6-(tetrahydro-2H-pyran-3-yloxy)pyridin-3-yl)methanone]"
12,10,"O=C(c1cnc(OC2CCOCC2)c(C2CC2)c1)N1C[C@@H]2CN(C(=O)c3ccc4[nH]nnc4c3)C[C@H]2C1 [Example 2.07, ((3aS,6aS)-5-(1H-benzo[d][1,2,3]triazole-5-carbonyl)hexahydropyrrolo[3,4-c]pyrrol-2(1H)-yl)(5-cyclopropyl-6-(tetrahydro-2H-pyran-4-yloxy)pyridin-3-yl)methanone]"
13,68.5,"O=C(c1cnc(OC2COC2)c(C(F)(F)F)c1)N1C[C@@H]2CN(C(=O)c3ccc4[nH]nnc4c3)C[C@H]2C1 [Example 2.08, ((3aS,6aS)-5-(1H-benzo[d][1,2,3]triazole-5-carbonyl)hexahydropyrrolo[3,4-c]pyrrol-2(1H)-yl)(6-(oxetan-3-yloxy)-5-(trifluoromethyl)pyridin-3-yl)methanone]"
14,20,"O=C(c1cnc(OC2CCOCC2)c(C2CC2)c1)N1C[C@@H]2CN(C(=O)[C@@H]3CCc4[nH]nnc4C3)C[C@H]2C1 [Example 2.09, ((3aS,6aS)-5-(5-cyclopropyl-6-(tetrahydro-2H-pyran-4-yloxy)nicotinoyl)hexahydropyrrolo[3,4-c]pyrrol-2(1H)-yl)((R)-4,5,6,7-tetrahydro-1H-benzo[d][1,2,3]triazol-5-yl)methanone]"
15,9,"O=C(c1cnc(NC2CCOCC2)c(C2CC2)c1)N1C[C@@H]2CN(C(=O)[C@@H]3CCc4[nH]nnc4C3)C[C@H]2C1 [Example 2.11, ((3aS,6aS)-5-(5-cyclopropyl-6-(tetrahydro-2H-pyran-4-ylamino)nicotinoyl)hexahydropyrrolo[3,4-c]pyrrol-2(1H)-yl)((R)-4,5,6,7-tetrahydro-1H-benzo[d][1,2,3]triazol-5-yl)methanone]"
16,11,"O=C(c1cnc(OC2CCCOC2)c(C2CC2)c1)N1C[C@@H]2CN(C(=O)[C@@H]3CCc4[nH]nnc4C3)C[C@H]2C1 (stereo partly drawn) [Example 2.12, ((3aS,6aS)-5-(5-cyclopropyl-6-(tetrahydro-2H-pyran-3-yloxy)nicotinoyl)hexahydropyrrolo[3,4-c]pyrrol-2(1H)-yl)((R)-4,5,6,7-tetrahydro-1H-benzo[d][1,2,3]triazol-5-yl)methanone]"
17,10,"NS(=O)(=O)c1ccc(C(=O)N2C[C@H]3CN(C(=O)c4cnc(OC5CCCOC5)c(C5CC5)c4)C[C@@H]3C2)nc1 (stereo partly drawn) [Example 2.13, 6-((3aR,6aR)-5-(5-cyclopropyl-6-(tetrahydro-2H-pyran-3-yloxy)nicotinoyl)octahydropyrrolo[3,4-c]pyrrole-2-carbonyl)pyridine-3-sulfonamide]"
18,6,"NS(=O)(=O)c1ccc(C(=O)N2C[C@H]3CN(C(=O)c4cc(OCC5CCOCC5)nc(C5CC5)c4)C[C@@H]3C2)nc1 [Example 2.14, 6-((3aR,6aR)-5-(2-cyclopropyl-6-((tetrahydro-2H-pyran-4-yl)methoxy)isonicotinoyl)octahydropyrrolo[3,4-c]pyrrole-2-carbonyl)pyridine-3-sulfonamide]"
19,12,"O=C(c1cc(OCC2CCCOC2)nc(C2CC2)c1)N1C[C@@H]2CN(C(=O)c3ccc4[nH]nnc4c3)C[C@H]2C1 (stereo partly drawn) [Example 2.15, ((3aS,6aS)-5-(1H-benzo[d][1,2,3]triazole-5-carbonyl)hexahydropyrrolo[3,4-c]pyrrol-2(1H)-yl)(2-cyclopropyl-6-((tetrahydro-2H-pyran-3-yl)methoxy)pyridin-4-yl)methanone]"
20,17,"O=C(c1cc(OCC2CCCOC2)nc(C2CC2)c1)N1C[C@@H]2CN(C(=O)[C@@H]3CCc4[nH]nnc4C3)C[C@H]2C1 (stereo partly drawn) [Example 2.16, ((3aS,6aS)-5-(2-cyclopropyl-6-((tetrahydro-2H-pyran-3-yl)methoxy)isonicotinoyl)hexahydropyrrolo[3,4-c]pyrrol-2(1H)-yl)((R)-4,5,6,7-tetrahydro-1H-benzo[d][1,2,3]triazol-5-yl)methanone]"
